Values after ≈ are worked out from the molar mass of the structure shown.
How the values were obtained:
EGFR = EGFR (Homo sapiens (Human), UniProt P00533); experiment: Kinase inhibition, Mobility Shift Assay (EGFR); assay type: biochemical
Procedure, shortened: (§1)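 Mobility shift assay: each kinase preincubated 10 min at room temperature with compound, then reacted with FAM-labeled peptide, MgCl2 and ATP at 28° C. for varying times. Substrate-to-product conversion read on Caliper; % inhibition normalised to no-kinase and DMSO controls, and IC50 fitted.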

[1] = pH 2
Description: After sonication for 10 min, fix them on a shaker and shaking for 8 h at room temperature. After shaking, sonicate for 10 min and centrifuge for 15 min at 13,000 rpm. Pipette 0.1 mL of supernatant into a new tube, shake and rinse it with 5 mL, and discard the liquid. Transfer 0.5 mL of the supernatant again to a new tube, centrifuge it for 15 min at 13,000 rpm, then collect the supernatant (if necessary, dilute with water) and analyze it by LC-MS.
The sample concentrations at 3-5 points are subjected to fitting and reticle for quantification.

FLT4 (VEGFR3) = FLT4 (VEGFR3) (Homo sapiens (Human), UniProt P35916); experiment: Kinase inhibition, Mobility Shift Assay (VEGFR3); assay type: biochemical
Sequence of FLT4 (VEGFR3) (P35916 25-1363): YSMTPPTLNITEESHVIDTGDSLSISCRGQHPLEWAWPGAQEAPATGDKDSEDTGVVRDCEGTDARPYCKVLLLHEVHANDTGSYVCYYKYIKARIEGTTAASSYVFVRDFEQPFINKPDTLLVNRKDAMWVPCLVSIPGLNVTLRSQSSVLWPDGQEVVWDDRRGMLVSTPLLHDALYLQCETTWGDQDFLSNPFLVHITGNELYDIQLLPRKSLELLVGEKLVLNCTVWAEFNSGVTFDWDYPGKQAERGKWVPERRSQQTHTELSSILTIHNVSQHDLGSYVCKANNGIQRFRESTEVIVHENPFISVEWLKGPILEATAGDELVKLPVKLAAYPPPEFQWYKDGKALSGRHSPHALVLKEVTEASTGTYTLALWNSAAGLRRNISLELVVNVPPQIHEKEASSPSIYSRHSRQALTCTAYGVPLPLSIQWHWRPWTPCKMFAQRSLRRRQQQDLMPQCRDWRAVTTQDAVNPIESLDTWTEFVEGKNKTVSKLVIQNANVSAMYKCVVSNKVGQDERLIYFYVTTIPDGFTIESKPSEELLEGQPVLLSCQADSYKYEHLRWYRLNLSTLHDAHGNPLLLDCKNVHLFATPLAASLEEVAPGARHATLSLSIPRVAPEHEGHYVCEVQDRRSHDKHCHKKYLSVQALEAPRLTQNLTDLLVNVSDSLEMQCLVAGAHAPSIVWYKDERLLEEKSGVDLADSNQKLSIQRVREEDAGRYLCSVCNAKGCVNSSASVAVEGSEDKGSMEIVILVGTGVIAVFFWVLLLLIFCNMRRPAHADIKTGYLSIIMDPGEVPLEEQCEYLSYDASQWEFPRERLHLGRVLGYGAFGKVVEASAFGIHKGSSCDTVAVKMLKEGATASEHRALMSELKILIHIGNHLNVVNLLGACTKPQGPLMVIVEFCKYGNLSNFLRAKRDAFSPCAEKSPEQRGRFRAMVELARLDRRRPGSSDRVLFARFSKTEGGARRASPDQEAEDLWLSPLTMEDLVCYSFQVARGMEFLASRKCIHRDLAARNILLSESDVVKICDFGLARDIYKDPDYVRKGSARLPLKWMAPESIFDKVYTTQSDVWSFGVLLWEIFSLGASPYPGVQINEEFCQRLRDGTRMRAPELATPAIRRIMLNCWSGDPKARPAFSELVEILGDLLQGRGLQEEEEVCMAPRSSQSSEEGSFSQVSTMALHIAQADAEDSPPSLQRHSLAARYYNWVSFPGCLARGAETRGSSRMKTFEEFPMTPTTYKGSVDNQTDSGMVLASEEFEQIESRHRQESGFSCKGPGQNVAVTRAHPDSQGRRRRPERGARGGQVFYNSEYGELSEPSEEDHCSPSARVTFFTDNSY
Procedure, shortened: as §1

KDR (VEGFR2) = KDR (VEGFR2) (Homo sapiens (Human), UniProt P35968); experiment: Kinase inhibition, Mobility Shift Assay (VEGFR2); assay type: biochemical
Sequence of KDR (VEGFR2) (P35968 790-1356): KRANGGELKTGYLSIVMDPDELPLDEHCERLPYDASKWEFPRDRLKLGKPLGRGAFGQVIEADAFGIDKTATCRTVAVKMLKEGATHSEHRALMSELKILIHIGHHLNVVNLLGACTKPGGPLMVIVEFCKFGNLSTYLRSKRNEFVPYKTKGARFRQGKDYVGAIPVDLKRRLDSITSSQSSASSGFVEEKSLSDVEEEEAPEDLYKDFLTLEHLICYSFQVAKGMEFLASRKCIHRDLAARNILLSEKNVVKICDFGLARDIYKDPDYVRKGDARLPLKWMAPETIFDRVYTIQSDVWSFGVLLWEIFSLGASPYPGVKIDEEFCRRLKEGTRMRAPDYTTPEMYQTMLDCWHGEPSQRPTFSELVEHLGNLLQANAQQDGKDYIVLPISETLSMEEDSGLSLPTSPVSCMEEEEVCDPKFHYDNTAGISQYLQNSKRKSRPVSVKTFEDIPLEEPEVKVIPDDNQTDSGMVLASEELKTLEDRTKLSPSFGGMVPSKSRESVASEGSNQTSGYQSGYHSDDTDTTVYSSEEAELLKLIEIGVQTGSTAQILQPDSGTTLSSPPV
Procedure, shortened: as §1

FLT1 (VEGFR1) = FLT1 (VEGFR1) (Homo sapiens (Human), UniProt P17948); experiment: Kinase inhibition, Mobility Shift Assay (VEGFR1); assay type: biochemical
Sequence of FLT1 (VEGFR1) (P17948 27-1338): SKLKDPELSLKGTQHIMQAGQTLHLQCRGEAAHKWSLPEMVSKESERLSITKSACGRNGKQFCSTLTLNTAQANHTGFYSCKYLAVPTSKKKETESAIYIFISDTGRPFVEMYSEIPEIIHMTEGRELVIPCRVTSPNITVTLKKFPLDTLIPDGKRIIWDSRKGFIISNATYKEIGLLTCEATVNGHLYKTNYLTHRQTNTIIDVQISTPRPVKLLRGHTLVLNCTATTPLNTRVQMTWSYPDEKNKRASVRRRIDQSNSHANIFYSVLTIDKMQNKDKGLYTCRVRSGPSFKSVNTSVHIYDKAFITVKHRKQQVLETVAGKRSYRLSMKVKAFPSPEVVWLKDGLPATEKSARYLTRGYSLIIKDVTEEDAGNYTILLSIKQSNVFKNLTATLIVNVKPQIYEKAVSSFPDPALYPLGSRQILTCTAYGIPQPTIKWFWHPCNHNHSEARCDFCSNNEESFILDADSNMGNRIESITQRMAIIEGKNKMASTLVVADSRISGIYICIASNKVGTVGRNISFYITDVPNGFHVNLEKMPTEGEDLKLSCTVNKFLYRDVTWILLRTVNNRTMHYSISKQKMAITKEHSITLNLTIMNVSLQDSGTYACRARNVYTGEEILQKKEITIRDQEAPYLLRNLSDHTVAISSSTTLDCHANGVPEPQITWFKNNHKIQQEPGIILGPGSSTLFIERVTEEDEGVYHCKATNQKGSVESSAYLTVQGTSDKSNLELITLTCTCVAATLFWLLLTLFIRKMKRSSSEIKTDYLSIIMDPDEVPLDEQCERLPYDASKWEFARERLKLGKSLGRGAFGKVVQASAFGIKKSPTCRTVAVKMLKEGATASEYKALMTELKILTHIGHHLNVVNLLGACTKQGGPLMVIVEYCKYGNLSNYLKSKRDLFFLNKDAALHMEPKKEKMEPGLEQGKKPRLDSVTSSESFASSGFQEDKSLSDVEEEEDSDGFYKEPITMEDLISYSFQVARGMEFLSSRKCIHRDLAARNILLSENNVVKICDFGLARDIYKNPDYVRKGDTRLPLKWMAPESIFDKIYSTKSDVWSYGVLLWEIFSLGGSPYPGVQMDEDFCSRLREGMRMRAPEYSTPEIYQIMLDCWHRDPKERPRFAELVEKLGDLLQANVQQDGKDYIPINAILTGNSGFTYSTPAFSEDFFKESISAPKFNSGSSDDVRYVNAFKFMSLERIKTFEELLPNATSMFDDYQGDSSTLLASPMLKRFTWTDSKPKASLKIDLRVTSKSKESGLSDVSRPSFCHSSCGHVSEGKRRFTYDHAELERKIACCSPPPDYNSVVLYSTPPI
Procedure, shortened: as §1

Sequence of EGFR (P00533 25-1210): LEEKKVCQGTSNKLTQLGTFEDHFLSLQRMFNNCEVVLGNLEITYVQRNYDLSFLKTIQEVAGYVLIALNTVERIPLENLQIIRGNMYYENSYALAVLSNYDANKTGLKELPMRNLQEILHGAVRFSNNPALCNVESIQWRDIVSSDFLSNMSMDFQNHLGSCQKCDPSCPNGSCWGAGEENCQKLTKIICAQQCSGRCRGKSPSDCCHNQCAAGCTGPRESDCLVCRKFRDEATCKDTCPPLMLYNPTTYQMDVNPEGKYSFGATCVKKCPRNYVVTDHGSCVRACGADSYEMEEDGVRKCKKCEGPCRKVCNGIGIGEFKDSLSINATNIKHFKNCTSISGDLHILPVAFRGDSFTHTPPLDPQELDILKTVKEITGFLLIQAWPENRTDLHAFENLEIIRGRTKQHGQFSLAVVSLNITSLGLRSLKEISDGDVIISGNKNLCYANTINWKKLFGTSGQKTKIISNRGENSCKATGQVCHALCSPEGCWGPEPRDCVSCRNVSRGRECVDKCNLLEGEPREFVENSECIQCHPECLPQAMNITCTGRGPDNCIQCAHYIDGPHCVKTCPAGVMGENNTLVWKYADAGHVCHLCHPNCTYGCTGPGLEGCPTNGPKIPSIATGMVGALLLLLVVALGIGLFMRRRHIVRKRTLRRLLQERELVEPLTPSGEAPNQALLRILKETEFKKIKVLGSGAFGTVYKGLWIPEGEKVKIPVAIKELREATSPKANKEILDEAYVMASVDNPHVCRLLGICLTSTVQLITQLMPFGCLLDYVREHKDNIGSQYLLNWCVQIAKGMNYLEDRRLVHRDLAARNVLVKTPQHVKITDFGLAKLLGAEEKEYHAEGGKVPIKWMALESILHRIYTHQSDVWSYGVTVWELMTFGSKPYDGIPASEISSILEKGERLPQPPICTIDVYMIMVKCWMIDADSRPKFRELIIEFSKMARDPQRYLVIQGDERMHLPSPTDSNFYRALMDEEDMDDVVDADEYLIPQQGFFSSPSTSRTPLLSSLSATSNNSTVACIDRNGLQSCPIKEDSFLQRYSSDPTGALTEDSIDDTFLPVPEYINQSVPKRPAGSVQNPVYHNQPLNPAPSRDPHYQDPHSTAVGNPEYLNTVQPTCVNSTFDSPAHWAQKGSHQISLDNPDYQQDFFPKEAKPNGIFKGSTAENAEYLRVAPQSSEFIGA

For `CNC(=O)c1ccccc1Sc1ccc2c(/C=C/c3ccccn3)ncn2c1` [Compound I-26, N-methyl-2-({1-[(E)-2-(pyridin-2-yl)vinyl]imidazo[1,5-a]pyridin-6-yl}thio)benzamide], the IC50 (EGFR) was over 60000 nM, the “solubility” value [1] was 142.0 µg/mL (≈ 367 µM) and the IC50 (FLT4 (VEGFR3)) was over 100 nM. For the same compound, the IC50 (KDR (VEGFR2)) was over 100 nM and the IC50 (FLT1 (VEGFR1)) was over 100 nM.

Source: US20260049071A1, “PROTEIN TYROSINE KINASE INHIBITOR AND MEDICAL USE THEREOF” (BEYANG THERAPEUTICS CO., LTD., priority 2022, published 2026)
